Data as given in PubChem BioAssay AID1845196 (Molecular Pharmacology Branch, DTP, NCI, 2023).

Tested on: 292921-168-R tumor spheroid viability
Test: Anticancer human tumor 292921-168-R patient-derived pancreatic carcinoma cell line growth inhibition
Conditions: spheroids with HUVEC and MSC; for IC50: curve of first compound; for viability, T/C: stronger effect = lower value
Procedure, shortened: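 Single agents and combinations were tested on spheroids built from tumor cells plus HUVEC and hMSC, at half-log dilutions starting at or near clinical Cmax, else 10 microM; final DMSO 0.25% (v/v).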

[1] = second compound 30 pM, first compound 0.0316 µM
[2] = second compound 30 pM, first compound 0.1 µM
[3] = second compound 30 pM, first compound 0.316 µM
[4] = second compound 30 pM, first compound 1 µM
[5] = second compound 30 pM, first compound 3.16 µM
[6] = second compound 30 pM, first compound 10 µM
[7] = second compound 94.9 pM, first compound 0.0316 µM
[8] = second compound 94.9 pM, first compound 0.1 µM
[9] = second compound 94.9 pM, first compound 0.316 µM
[10] = second compound 94.9 pM, first compound 1 µM
[11] = second compound 94.9 pM, first compound 3.16 µM
[12] = second compound 94.9 pM, first compound 10 µM
[13] = second compound 0.0003 µM, first compound 0.0316 µM
[14] = second compound 0.0003 µM, first compound 0.1 µM
[15] = second compound 0.0003 µM, first compound 0.316 µM
[16] = second compound 0.0003 µM, first compound 1 µM
[17] = second compound 0.0003 µM, first compound 3.16 µM
[18] = second compound 0.0003 µM, first compound 10 µM
[19] = second compound 0.000949 µM, first compound 0.0316 µM
[20] = second compound 0.000949 µM, first compound 0.1 µM
[21] = second compound 0.000949 µM, first compound 0.316 µM
[22] = second compound 0.000949 µM, first compound 1 µM
[23] = second compound 0.000949 µM, first compound 3.16 µM
[24] = second compound 0.000949 µM, first compound 10 µM
[25] = second compound 0.003 µM, first compound 0.0316 µM
[26] = second compound 0.003 µM, first compound 0.1 µM
[27] = second compound 0.003 µM, first compound 0.316 µM
[28] = second compound 0.003 µM, first compound 1 µM
[29] = second compound 0.003 µM, first compound 3.16 µM
[30] = second compound 0.003 µM, first compound 10 µM
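Also: spheroids exposed to compounds for 7 days.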

Question: For `CC1COCCN1c1cc(-c2ccnn2C)c2ccnc(-c3ccn[nH]3)c2n1` (stereo not given) + COc1cc2c(cc1O)CCNC21CSC2c3c(OC(C)=O)c(C)c4c(c3C(COC1=O)N1C(O)C3Cc5cc(C)c(OC)c(O)c5C(C21)N3C)OCO4, which IC50 (second compound 30 pM) is on record?
Answer: < 31.6 nM

Question: What about the IC50 (second compound 94.9 pM) of the same molecule?
Answer: < 31.6 nM

Question: What about the IC50 (second compound 0.0003 µM) of the same molecule?
Answer: < 31.6 nM

Question: What about the IC50 (second compound 0.000949 µM) of the same molecule?
Answer: < 31.6 nM

Question: And the IC50 (second compound 0.003 µM)?
Answer: < 31.6 nM

Question: What about the viability, T/C [1] of the same molecule?
Answer: 17.2%

Question: And the viability, T/C [2]?
Answer: 10.9%

Question: What about the viability, T/C [3] of the same molecule?
Answer: 10.4%

Question: What about the viability, T/C [4] of the same molecule?
Answer: 13%

Question: What about the viability, T/C [5] of the same molecule?
Answer: 14.3%

Question: What about the viability, T/C [6] of the same molecule?
Answer: 16.4%

Question: What about the viability, T/C [7] of the same molecule?
Answer: 10.2%

Question: What about the viability, T/C [8] of the same molecule?
Answer: 7.28%

Question: What about the viability, T/C [9] of the same molecule?
Answer: 8.41%

Question: And the viability, T/C [10]?
Answer: 11.8%

Question: What about the viability, T/C [11] of the same molecule?
Answer: 13.9%

Question: And the viability, T/C [12]?
Answer: 16.9%

Question: What about the viability, T/C [13] of the same molecule?
Answer: 4.54%

Question: What about the viability, T/C [14] of the same molecule?
Answer: 4.77%

Question: What about the viability, T/C [15] of the same molecule?
Answer: 5.09%

Question: And the viability, T/C [16]?
Answer: 8.72%

Question: And the viability, T/C [17]?
Answer: 10.4%

Question: And the viability, T/C [18]?
Answer: 12.7%

Question: What about the viability, T/C [19] of the same molecule?
Answer: 1.76%

Question: What about the viability, T/C [20] of the same molecule?
Answer: 1.36%

Question: What about the viability, T/C [21] of the same molecule?
Answer: 2.19%

Question: And the viability, T/C [22]?
Answer: 2.16%

Question: And the viability, T/C [23]?
Answer: 1.68%

Question: And the viability, T/C [24]?
Answer: 2.07%

Question: And the viability, T/C [25]?
Answer: 0.19%

Question: And the viability, T/C [26]?
Answer: 0.16%

Question: And the viability, T/C [27]?
Answer: 0.17%

Question: And the viability, T/C [28]?
Answer: 0.16%

Question: What about the viability, T/C [29] of the same molecule?
Answer: 0.16%

Question: What about the viability, T/C [30] of the same molecule?
Answer: 0.37%

Question: How did the IC50 (second compound 30 pM) turn out when `COc1ccc([C@@H](O)c2cc(-c3ncnc4cc(N5CCOCC5)ccc34)c(F)cc2Cl)nn1` + COc1cc2c(cc1O)CCNC21CSC2c3c(OC(C)=O)c(C)c4c(c3C(COC1=O)N1C(O)C3Cc5cc(C)c(OC)c(O)c5C(C21)N3C)OCO4 was run?
Answer: 1440 nM

Question: What about the IC50 (second compound 94.9 pM) of the same molecule?
Answer: 871 nM

Question: And the IC50 (second compound 0.0003 µM)?
Answer: < 31.6 nM

Question: And the IC50 (second compound 0.000949 µM)?
Answer: < 31.6 nM

Question: And the IC50 (second compound 0.003 µM)?
Answer: < 31.6 nM

Question: What about the viability, T/C [1] of the same molecule?
Answer: 100%

Question: And the viability, T/C [2]?
Answer: 107%

Question: And the viability, T/C [3]?
Answer: 95.6%

Question: What about the viability, T/C [4] of the same molecule?
Answer: 58.6%

Question: What about the viability, T/C [5] of the same molecule?
Answer: 31.1%

Question: What about the viability, T/C [6] of the same molecule?
Answer: 19.5%

Question: What about the viability, T/C [7] of the same molecule?
Answer: 105%

Question: What about the viability, T/C [8] of the same molecule?
Answer: 99.2%

Question: And the viability, T/C [9]?
Answer: 78.7%

Question: What about the viability, T/C [10] of the same molecule?
Answer: 45.4%

Question: What about the viability, T/C [11] of the same molecule?
Answer: 27.4%

Question: What about the viability, T/C [12] of the same molecule?
Answer: 19%

Question: And the viability, T/C [13]?
Answer: 40.7%

Question: What about the viability, T/C [14] of the same molecule?
Answer: 43.3%

Question: And the viability, T/C [15]?
Answer: 26.3%

Question: And the viability, T/C [16]?
Answer: 13.7%

Question: And the viability, T/C [17]?
Answer: 9.98%

Question: What about the viability, T/C [18] of the same molecule?
Answer: 7.7%

Question: And the viability, T/C [19]?
Answer: 2.51%

Question: And the viability, T/C [20]?
Answer: 2.48%

Question: And the viability, T/C [21]?
Answer: 0.8%

Question: And the viability, T/C [22]?
Answer: 0.09%

Question: What about the viability, T/C [23] of the same molecule?
Answer: 0.1%

Question: And the viability, T/C [24]?
Answer: 0.26%

Question: What about the viability, T/C [25] of the same molecule?
Answer: 0.14%

Question: And the viability, T/C [26]?
Answer: 0.23%

Question: What about the viability, T/C [27] of the same molecule?
Answer: 0.49%

Question: What about the viability, T/C [28] of the same molecule?
Answer: 1.37%

Question: What about the viability, T/C [29] of the same molecule?
Answer: 1.46%

Question: What about the viability, T/C [30] of the same molecule?
Answer: 1.42%

Question: Which IC50 (second compound 30 pM) does the source give for `CNCc1ccc(-c2cc(-c3nc(-c4ccc(S(=O)(=O)C(C)C)cc4)cnc3N)on2)cc1` + COc1cc2c(cc1O)CCNC21CSC2c3c(OC(C)=O)c(C)c4c(c3C(COC1=O)N1C(O)C3Cc5cc(C)c(OC)c(O)c5C(C21)N3C)OCO4 here?
Answer: 193 nM

Question: What about the IC50 (second compound 94.9 pM) of the same molecule?
Answer: 147 nM

Question: What about the IC50 (second compound 0.0003 µM) of the same molecule?
Answer: < 9.49 nM

Question: What about the IC50 (second compound 0.000949 µM) of the same molecule?
Answer: < 9.49 nM

Question: What about the IC50 (second compound 0.003 µM) of the same molecule?
Answer: < 9.49 nM

Question: What about the viability, T/C (second compound 30 pM, first compound 0.00949 µM) of the same molecule?
Answer: 96.9%

Question: And the viability, T/C (second compound 30 pM, first compound 0.03 µM)?
Answer: 104%

Question: And the viability, T/C (second compound 30 pM, first compound 0.0949 µM)?
Answer: 71.5%

Question: What about the viability, T/C (second compound 30 pM, first compound 0.3 µM) of the same molecule?
Answer: 36.8%

Question: And the viability, T/C (second compound 30 pM, first compound 0.949 µM)?
Answer: 15.8%

Question: And the viability, T/C (second compound 30 pM, first compound 3 µM)?
Answer: 13.2%

Question: What about the viability, T/C (second compound 94.9 pM, first compound 0.00949 µM) of the same molecule?
Answer: 100%

Question: What about the viability, T/C (second compound 94.9 pM, first compound 0.03 µM) of the same molecule?
Answer: 96.4%

Question: What about the viability, T/C (second compound 94.9 pM, first compound 0.0949 µM) of the same molecule?
Answer: 69%

Question: What about the viability, T/C (second compound 94.9 pM, first compound 0.3 µM) of the same molecule?
Answer: 19%

Question: What about the viability, T/C (second compound 94.9 pM, first compound 0.949 µM) of the same molecule?
Answer: 13.2%

Question: And the viability, T/C (second compound 94.9 pM, first compound 3 µM)?
Answer: 8.91%

Question: What about the viability, T/C (second compound 0.0003 µM, first compound 0.00949 µM) of the same molecule?
Answer: 45.9%

Question: And the viability, T/C (second compound 0.0003 µM, first compound 0.03 µM)?
Answer: 50.7%

Question: What about the viability, T/C (second compound 0.0003 µM, first compound 0.0949 µM) of the same molecule?
Answer: 28.6%

Question: What about the viability, T/C (second compound 0.0003 µM, first compound 0.3 µM) of the same molecule?
Answer: 14.5%

Question: And the viability, T/C (second compound 0.0003 µM, first compound 0.949 µM)?
Answer: 10%

Question: What about the viability, T/C (second compound 0.0003 µM, first compound 3 µM) of the same molecule?
Answer: 8.68%

Question: And the viability, T/C (second compound 0.000949 µM, first compound 0.00949 µM)?
Answer: 2.7%

Question: What about the viability, T/C (second compound 0.000949 µM, first compound 0.03 µM) of the same molecule?
Answer: 5.05%

Question: What about the viability, T/C (second compound 0.000949 µM, first compound 0.0949 µM) of the same molecule?
Answer: 4.26%

Question: What about the viability, T/C (second compound 0.000949 µM, first compound 0.3 µM) of the same molecule?
Answer: 4.15%

Question: And the viability, T/C (second compound 0.000949 µM, first compound 0.949 µM)?
Answer: 3.65%

Question: And the viability, T/C (second compound 0.000949 µM, first compound 3 µM)?
Answer: 0.18%

Question: And the viability, T/C (second compound 0.003 µM, first compound 0.00949 µM)?
Answer: 0.18%

Question: What about the viability, T/C (second compound 0.003 µM, first compound 0.03 µM) of the same molecule?
Answer: 0.17%

Question: What about the viability, T/C (second compound 0.003 µM, first compound 0.0949 µM) of the same molecule?
Answer: 0.15%

Question: What about the viability, T/C (second compound 0.003 µM, first compound 0.3 µM) of the same molecule?
Answer: 0.2%

Question: What about the viability, T/C (second compound 0.003 µM, first compound 0.949 µM) of the same molecule?
Answer: 0.24%

Question: What about the viability, T/C (second compound 0.003 µM, first compound 3 µM) of the same molecule?
Answer: 0.16%
